Consider 21 molecules from patent US5324725A, “7-fused 2-(piperazinoalkyl) indole derivatives, intermediates and compositions thereof” (Kali-Chemie Pharma GmbH, priority 1991, dated 1994).

The target in one experiment is T1, cyclooxygenase (Mus musculus, UniProt P22437).
T1 construct: A cell suspension containing peritoneal cells of male mice 8-10 weeks old was obtained; endogenous in cells; host or cells: mouse peritoneal macrophages (male mice 8-10 weeks old), zymosan-stimulated
T1 sequence (P22437 27-602): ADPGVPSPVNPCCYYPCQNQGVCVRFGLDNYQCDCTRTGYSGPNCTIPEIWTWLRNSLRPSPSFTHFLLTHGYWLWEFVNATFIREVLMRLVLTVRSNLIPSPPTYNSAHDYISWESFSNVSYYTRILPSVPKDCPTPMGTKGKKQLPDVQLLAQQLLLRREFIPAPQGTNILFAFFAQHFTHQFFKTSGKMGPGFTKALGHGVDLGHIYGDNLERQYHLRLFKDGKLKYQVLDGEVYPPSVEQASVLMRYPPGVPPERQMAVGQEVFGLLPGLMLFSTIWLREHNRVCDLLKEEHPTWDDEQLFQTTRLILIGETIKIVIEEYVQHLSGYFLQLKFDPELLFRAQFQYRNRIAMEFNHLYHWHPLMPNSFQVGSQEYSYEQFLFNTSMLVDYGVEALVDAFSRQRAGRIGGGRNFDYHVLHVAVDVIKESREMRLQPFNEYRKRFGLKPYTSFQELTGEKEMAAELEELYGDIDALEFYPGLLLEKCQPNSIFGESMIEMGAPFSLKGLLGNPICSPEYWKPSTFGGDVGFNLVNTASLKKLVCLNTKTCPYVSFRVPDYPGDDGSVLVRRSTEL
Nature of the experiment: Cyclooxygenase inhibition: release of 6-keto-PGF1 α from zymosan-stimulated mouse peritoneal macrophage cells. It is filed as cell-based. The note with it: 10^-5 mol/l, read-out: In vitro % inhibition effect on the release of 6-keto-PGF1 α. From the text:
5. In vitro determination of cyclooxygenase inhibition and 5-lipoxygenase inhibition.
After activation of the cell, arachidonic acid contained in cell membranes is metabolized in two ways. Leukotrienes, inter alia leukotriene C4, are formed under the action of the enzyme 5-lipoxygenase (5-LO), and prostanoids are formed under the action of the enzyme cyclooxygenase (CO). In in vitro systems, the metabolites are secreted from the cell.
To investigate the cyclooxygenase-inhibiting and the 5-lipoxygenase-inhibiting properties, the inhibitory effect of the test substances on the biosynthesis of the arachidonic acid derivatives leukotriene C4 (LTC4) and 6-ketoprostaglandin F1 α (6-keto-PGF1 α) is determined in vitro on mouse peritoneal macrophage cells. This was accomplished by determining the LTC4 and 6-keto-PGF1 α contents in a culture medium of mouse peritoneal macrophage cells by zymosan stimulation as described by Scott et al. (J. Exp. Med. 152 (1980), 324-335) and by Fradin et al. (Prostaglandins, 33 (1987), 579-589).
A cell suspension containing peritoneal cells of male mice 8-10 weeks old was obtained in a known manner. A commercially available cell culture solution (RPMI 1640 from Messrs. Gibco) was used to which heparin (I0 international units/ml) and antibiotics were added according to the recipe of Bonney et al. (Biochem. J. 176 (1978) 422-433). The cell suspension was adjusted to a cell concentration of 10^6 cells per ml and distributed uniformly on titer plates containing […] (wells). These were kept for two hours in a humidified incubator filled with air enriched with 7% CO2. Cells not adhering to the titer cell walls were then removed by washing. The remaining macrophage cells adhering to the walls were incubated for about 12 hours in a suspension medium to which 0.1% bovine serum albumin (BSA) were added. The suspension medium was then replaced by a Hanks balanced salt solution (HBSS) containing 10 mM Hepes (hydroxyethyl-piperazinoethanesulfonic acid), to which a 0.1% strength solution of the test substances in aqueous, 1% strength dimethylformamide or only the solvent had been added. After 15 minutes the arachidonic acid metabolism was stimulated by adding 10 particles of zymosan (=glycoproteinmixture, isolated from cell walls of beer yeast, Saccharomyces cerevisiae, manufactured by Sigma Chemical Co., Munich) per titer cell. After 2 hours, samples of each of the supernatant liquids were investigated for their 6-keto-PGF1 α and LTC4 contents by means of an enzyme immunoassay (EIA) carried out by the method of Pradelles et al. (Analytical Chem. 57 (1985), 1170-1173). The determination of LTC4 and the determination of 6-keto-PGF1 α were each carried out in comparison with a comparative scale on suitable dilutions of the samples (1:50 to 1:250 for the LTC4 determination and 1:250 to 1:1250 for the 6-keto-PGF1 α determination). To determine the inhibitory effect of a 10^-5 molar concentration of the compounds, the amount of reference eicosanoids was determined and the inhibitory effect was calculated from this in % inhibition compared to the measurements of the zymosan controls.

The target in the next experiment is T2, histamine (H1) receptor (Cavia porcellus, UniProt P31389).
T2 construct: isolated smooth muscle of the guinea-pig ileum; from tissue; host or cells: isolated ileum segments of Dunkin Hartley guinea-pigs
Nature of the experiment: Antihistamine (H1) effect: inhibition of histamine-induced contractions of isolated guinea-pig ileum in vitro. It is filed as cell-based, guinea-pig (Dunkin Hartley). The note with it: histamine 5 × 10^-6 mol/l, test substance 10^-6 mol/l. The method, boiled down:
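Dunkin Hartley guinea-pig ileum segments (300-500 g animals) in Krebs-Henseleit, pH 7.4, 5% CO2/95% O2, 1 g tension, isotonic recording. Compound at 10^-6 mol/l for 30 s before histamine 5×10^-6 mol/l; contraction measured over 30 s, repeated 10 min after washout, expressed as % inhibition.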

[1] abbreviates: after 30 sec., read-out: in vitro (H1) receptor antagonism % inhibitory effect on histamine-induced contractions of the Ileum, after 30 sec.
Where [2] appears, read: after 10 min. (after washing), read-out: in vitro (H1) receptor antagonism % inhibitory effect on histamine-induced contractions of the Ileum, after 10 min.

Like-named read-outs stand apart in the source and are kept apart here.

T2 sequence (P31389 whole entry): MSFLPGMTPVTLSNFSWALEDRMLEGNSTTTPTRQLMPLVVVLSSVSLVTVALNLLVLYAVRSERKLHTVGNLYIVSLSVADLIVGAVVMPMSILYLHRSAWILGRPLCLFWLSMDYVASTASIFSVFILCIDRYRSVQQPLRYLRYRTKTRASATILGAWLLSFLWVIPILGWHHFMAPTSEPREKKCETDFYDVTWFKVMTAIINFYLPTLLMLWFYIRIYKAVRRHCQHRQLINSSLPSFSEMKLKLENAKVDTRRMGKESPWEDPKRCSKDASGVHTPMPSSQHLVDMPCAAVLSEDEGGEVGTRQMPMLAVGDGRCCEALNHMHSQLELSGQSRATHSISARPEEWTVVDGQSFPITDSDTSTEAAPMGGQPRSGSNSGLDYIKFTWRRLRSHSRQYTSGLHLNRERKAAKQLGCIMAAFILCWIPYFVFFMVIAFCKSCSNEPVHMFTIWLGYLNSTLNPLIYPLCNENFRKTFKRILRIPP

For `Cc1ccnc(N2CCN(CCc3c(C)n4c5c(cccc35)CCC4)CC2)c1` [Example 1, 5,6-Dihydro-2-methyl-1-{2-[4-(4-methylpyridin-2-yl)piperazin-1-yl]ethyl}-4H-pyrrolo[3,2,1-ij]quinoline], the inhibition at 10 µM on cyclooxygenase came to 23%. In addition, the inhibition at 1 µM at histamine (H1) receptor (setting [1]) came to 42%; on histamine (H1) receptor (setting [2]) it was 88%.
In the case of `Cc1ccnc(N2CCN(CCc3c(C)n4c5c(cccc35)CCC4c3ccccc3)CC2)c1` (stereo not drawn) [Example 3, 5,6-dihydro-2-methyl-4-phenyl-1-{2-[4-(4-methylpyridine-2-yl)piperazin-1-yl]-ethyl}-4H-pyrrolo[3,2,1-ij]quinoline], on cyclooxygenase, the inhibition at 10 µM was found to be 20%. In addition, the results for the inhibition at 1 µM on histamine (H1) receptor (setting [1]) and on histamine (H1) receptor (setting [2]) were 15% and 57%, respectively.
Take `Cc1ccnc(N2CCN(CCc3c(C)n4c5c(cc(Br)cc35)CCC4)CC2)c1` [Example 9, 8-Bromo-2-methyl-1-{2-[4-(4-methylpyridin-2-yl)piperazin-1-yl]ethyl}-5,6-dihydro-4H-pyrrolo[3,2,1-ij]quinoline]: the inhibition at 10 µM at cyclooxygenase amounted to 19%. Besides, the inhibition at 1 µM at histamine (H1) receptor (setting [1]) came to 10%; on histamine (H1) receptor (setting [2]), 78%.
The matching figures for `Cc1ccnc(N2CCN(CCc3c(CO)n4c5c(cccc35)CCC4)CC2)c1` [Example 16, 5,6-dihydro-2-hydroxymethyl-1-{2-[4-(4-methylpyridin-2-yl)piperazin-1-yl]ethyl}-4H-pyrrolo[3,2,1-ij]quinoline]: 18%, 42% and 55%.
Consider `Cc1ccnc(N2CCN(CCc3c(C)n4c5c(cc(C(O)C(C)C)cc35)CCC4)CC2)c1` (stereo not drawn) [Example 19, 5,6-Dihydro-8-(1-hydroxy-2-methylpropyl)-2-methyl-1-{2-[4-(4-methylpyridin-2-yl)piperazin-1-yl]ethyl}-4H-pyrrolo-[3,2,1-ij]quinoline], for which the inhibition at 10 µM on cyclooxygenase stood at 5%. Also, the inhibition at 1 µM was 26% on histamine (H1) receptor (setting [1]) and 83% on histamine (H1) receptor (setting [2]).
Consider `Cc1ccnc(N2CCN(CCc3c(C)n4c5c(cc(N)cc35)CCC4)CC2)c1` [Example 20, 8-Amino-5,6-dihydro-2-methyl-1-{2-[4-(4-methylpyridin-2-yl)piperazin-1-yl]ethyl}-4H-pyrrolo[3,2,1-ij]quinoline], for which the inhibition at 10 µM at cyclooxygenase stood at 42%. Besides, the inhibition at 1 µM on histamine (H1) receptor (setting [1]) is 27%; on histamine (H1) receptor (setting [2]) it was 77%.
For `Cc1ccnc(N2CCN(CCc3c(C)n4c5c(cc(CC(C)C)cc35)CCC4)CC2)c1` [Example 21, 5,6-Dihydro-2-methyl-8-(2-methylpropyl)-1-{2-[4-(4-methylpyridin-2-yl)piperazin-1-yl]ethyl}-4H-pyrrolo[3,2,1-ij]quinoline] the same measures were 64%, 9% and 56%.
Regarding `CCCCC1CCc2cc(C(=O)C(C)C)cc3c(CCN4CCN(c5cc(C)ccn5)CC4)c(C)n1c23` (stereo not drawn) [Example 23, 4-n-Butyl-5,6-dihydro-8-(2-methyl-1-oxopropyl)-2-methyl-1-{2-[4-(4-methylpyridin-2-yl)piperazin-1-yl]ethyl}-4H-pyrrolo[3,2,1-ij]quinoline], the inhibition at 10 µM at cyclooxygenase was 43%. The inhibition at 1 µM on histamine (H1) receptor (setting [1]) is 7%; on histamine (H1) receptor (setting [2]) it was 38%.
For `Cc1ccnc(N2CCN(CCc3c(C)n4c5c(cc(NC(=O)c6ccccc6)cc35)CCC4)CC2)c1` [Example 25, 8-Benzoylamino-5,6-dihydro-2-methyl-1-{2-[4-(4-methylpyridin-2-yl)piperazin-1-yl]-ethyl}-4H-pyrrolo[3,2,1-ij]quinoline] the same measures were 24%, 10% and 77%.
The matching figures for `CC(C)=Cc1cc2c3c(c1)c(CCN1CCN(c4cc(C)ccn4)CC1)c(C)n3CCC2` [Example 26, 5,6-Dihydro-2-methyl-8-(2-methylprop-1-enyl)-1-{2-[4-(4-methylpyridin-2-yl)piperazin-1-yl]ethyl}-4H-pyrrolo[3,2,1-ij]quinoline]: 68%, 15% and 42%.
The matching figures for `Cc1ccnc(N2CCN(CCc3c(C)n4c5c(cc(C(=O)C(C)C)cc35)CCC4)CC2)c1` [Example 27, 5,6-dihydro-2-methyl-8-(2-methyl-1-oxopropyl)-1-{2-[4-(4-methylpyridin-2-yl)piperazin-1-yl]ethyl}-4H-pyrrolo-[3,2,1-ij]quinoline]: 10%, 33% and 92%.
As for `Cc1ccnc(N2CCN(CCc3c(C)n4c5c(cccc35)CC4C)CC2)c1` (stereo not drawn) [Example 33], at cyclooxygenase, the inhibition at 10 µM came out at 21%. Also, the inhibition at 1 µM was 45% on histamine (H1) receptor (setting [1]) and 96% at histamine (H1) receptor (setting [2]).
With `Cc1ccnc(N2CCN(CCc3c(C)n4c5c(ccc(Cl)c35)OCC4)CC2)c1` [Example 35], the inhibition at 10 µM at cyclooxygenase stood at 51%. The values for the inhibition at 1 µM at histamine (H1) receptor (setting [1]) and at histamine (H1) receptor (setting [2]) were 25% and 78%, respectively.
Consider `Cc1c(CCN2CCN(c3ccccn3)CC2)c2cccc3c2n1CCC3` [Example 37], for which the inhibition at 10 µM on cyclooxygenase was found to be 32%. Also, the inhibition at 1 µM on histamine (H1) receptor (setting [1]) was 24%; at histamine (H1) receptor (setting [2]), 61%.
Regarding `Cc1ccc(N2CCN(CCc3c(C)n4c5c(cccc35)CCC4)CC2)nc1` [Example 42], the inhibition at 10 µM at cyclooxygenase stood at 76%. For the same molecule, the values for the inhibition at 1 µM on histamine (H1) receptor (setting [1]) and at histamine (H1) receptor (setting [2]) were 52% and 54%, respectively.
For the molecule `Cc1c(CCN2CCN(c3ccc(Br)cn3)CC2)c2cccc3c2n1CCC3` [Example 43], the inhibition at 10 µM at cyclooxygenase came out at 57%. For the same molecule, the inhibition at 1 µM was 11% at histamine (H1) receptor (setting [1]) and 23% on histamine (H1) receptor (setting [2]).
For `C=CCCC1CCc2cccc3c(CCN4CCN(c5cc(C)ccn5)CC4)c(C)n1c23` (stereo not drawn) [Example 62] the same measures were 64%, 13% and 72%.
For `CCCCC1CCc2cc(OC)cc3c(CCN4CCN(c5cc(C)ccn5)CC4)c(C)n1c23` (stereo not drawn) [Example 63] the same measures were 38%, 17% and 67%.
Turning to `Cc1ccnc(N2CCN(CC(O)c3c(C4CCCCC4)n4c5c(cccc35)CCC4)CC2)c1` (stereo not drawn) [Example 85], the inhibition at 10 µM on cyclooxygenase is 52%.
On the same count and under the same terms, under `Cc1ccnc(N2CCN(CCc3c(C)n4c5c(cccc35)CCC4C3CCCCC3)CC2)c1` (stereo not drawn) [Example 87] stands 20%.
On the same count and under the same terms, under `Cc1ccnc(N2CCN(CCc3c(C)n4c5c(c(C(O)C(C)C)ccc35)SCC4)CC2)c1` (stereo not drawn) [Example 89] stands 32%.
